Laboratory results as given in patent US9040547B2, “Pyrrolopyrimidine and purine derivatives” (PFIZER INC., priority 2011, dated 2015).

Assays:
Type in all cases: cell-based
[1] = system: NIH3T3/EGFR L858R+T790M; assay: Cell proliferation assay (CellTiter-Glo), NIH3T3/EGFR L858R+T790M; conditions: Mus musculus, NIH3T3, 120 h, 3T3 cell line, three to five days of compound treatment, read-out: 3T3 L858R_T790M IC50
[2] = biological target: T1, EGFR L858R, endogenous (Homo sapiens, UniProt P00533, L858R); assay: pEGFR Y1068 ELISA assay, NCI-H3255 cells; conditions: value marked (H3255): NCI-H3255 cells, 2 hrs compound treatment; read-out: pEGFRY1068 ELISA3T3 L858R IC50 (nM), (H3255)
T1 construct: NCI-H3255 (EGFR L858R, endogenous); endogenous in cells; host or cells: NCI-H3255

[3] = biological target: T2, EGFR Del (PC9) (Homo sapiens, UniProt P00533, DEL746-750); assay: EGFR ELISA, PC9 Del cells; conditions: read-out: EGFR_ELISA9E PC9 Del IC50;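 further: cellular EGFR autophosphorylation at Tyr1068 quantified by sandwich ELISA of cell lysates after 2 h compound exposure at 37 °C, 11-point threefold dilution series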
T2 construct: endogenous in cells; host or cells: PC-9

[4] = system: PC9-DRH; assay: Cell proliferation assay (CellTiter-Glo), PC9-DRH; conditions: value marked (PC9-DRH), read-out: 3T3 del_T790M IC50, (PC9-DRH)
Experimental: (§1) Cell proliferation was measured using the CellTiter-Glo® Luminescent Cell Viability Assay. The assay involves the addition of a single reagent (CellTiter-Glo® Reagent) directly to cells cultured in serum-supplemented medium. The assay uses this one-step addition to induce cell lysis and generate a luminescent signal proportional to the amount of ATP present which is directly proportional to the number of metabolically active cells present in culture. The following cell lines were evaluated in this assay: NIH3T3/EGFR_L858R, NIH3T3/EGFR_E746-A750_deletion, NIH3T3/EGFR L858R+T790M, NIH3T3/EGFR_E746-A750_deletion+T790M, PC-9, PC9-DRH, NCI-H1975, and NCI-H3255. NIH/3T3 parental cells, NCI-H1975, and NCI-H3255 were purchased from the American Type Culture Collection (Manassas, Va.), and PC-9 cells were obtained from Japan. All cells were cultured according to recommendations. NIH/3T3 cells were grown in DMEM (Invitrogen, Carlsbad, Calif.) supplemented with 10% newborn calf serum (Invitrogen), and NIH3T3/EGFR mutant cells were grown in complete media with 5 μg/mL puromycin (Invitrogen). PC-9, NCI-H1975, and NCI-H3255 were grown in RPMI (Invitrogen, Carlsbad, Calif.) supplemented with 10% FBS (Sigma, St Louis, Mo.), and PC9-DRH cells were grown in complete media with 2 uM PF-00299804. Plasmids (pLPCX) with various EGFR constructs were made by GenScript (Piscataway, N.J.), and stable pools of NIH/3T3 cells expressing these constructs were made at Pfizer La Jolla. PC9-DRH cells were generated at Pfizer La Jolla by exposing cells to increasing concentrations of PF-00299804. Cells were plated in complete culture media (3000-5000 cells/well, 50 μl/well) on the bottom of white clear-bottom tissue culture treated microtiter plates (#3610, Corning Inc, Corning, N.Y.) and allowed to adhere overnight at 37° C., 5% CO2. The following day, compound dilution plates were prepared in 96 well clear V-bottom 0.5 mL polypropylene block plates (#3956, Corning, Inc). All cell lines were not evaluated for each compound. Each compound evaluated was prepared as a DMSO stock solution (10 mM). Compounds were tested in duplicate on each plate, with an 11-point serial dilution curve (1:3 dilution). Compound treatment (50 μl) was added from the compound dilution plate to the cell plate. The highest compound concentration was 1 or 10 μM (final), with a 0.3% final DMSO (#D-5879, Sigma, St Louis, Mo.) concentration. Plates were then incubated at 37° C., 5% CO2. After three to five days of compound treatment, CellTiter-Glo® Reagent (#G7573, Promega, Madison, Wis.) was prepared in one of two ways. If thawing a frozen aliquot of CellTiter-Glo® Reagent, the aliquot was thawed and equilibrated to room temperature prior to use while keeping it protected from light. Alternatively, new bottles of CellTiter-Glo® Buffer and CellTiter-Glo® Substrate were thawed and equilibrated to room temperature prior to use. CellTiter-Glo® Buffer (100 mL) was transferred into the amber bottle containing CellTiter-Glo® Substrate to reconstitute the lyophilized enzyme/substrate mixture, forming the CellTiter-Glo® Reagent. The reconstituted reagent was mixed by gently inverting the contents to obtain a homogeneous solution, and went into solution easily in less than one minute. Any unused reconstituted CellTiter-Glo® Reagent was immediately aliquoted and frozen at −20° C., protected from light. Cell plates were equilibrated at room temperature for approximately 30 minutes. An equivolume amount of CellTiter-Glo® Reagent (100 μL) was added to each well. Plates were mixed for two minutes on an orbital shaker to induce cell lysis, and then allowed to incubate at room temperature for 10 minutes to stabilize the luminescent signal. Luminescence was recorded using the PerkinElmer EnVision Excite Multilabel Reader used for endpoint reading for Luminescence detection (Waltham, Mass.). Data were analyzed using a four-parameter fit in Microsoft Excel. […]

[5] = biological target: T3, EGFR L858R+T790M, endogenous (Homo sapiens, UniProt P00533, L858R/T790M); assay: pEGFR Y1068 ELISA assay, NCI-H1975 cells; conditions: value marked (H1975): NCI-H1975 cells, 2 hrs compound treatment; read-out: pEGFRY1068 ELISA3T3T790M—L858R IC50 (nM), (H1975);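 further: sandwich ELISA of endogenous phospho-EGFR (Tyr1068) in lysates of treated cells, 11-point 1:3 serial dilution tested in duplicate per plate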
T3 construct: NCI-H1975 (EGFR L858R+T790M, endogenous); host or cells: NCI-H1975

[6] = biological target: T4, EGFR wildtype, endogenous (Homo sapiens, UniProt P00533); assay: pEGFR Y1068 ELISA assay, A549 cells; conditions: full serum media, stimulated 10 min with EGF (40 ng/mL), read-out: pEGFRY1068 ELISAA549 IC50;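 further: sandwich ELISA of phospho-EGFR Tyr1068 in cell lysates, cells exposed to compound for 2 h before EGF stimulation, 11-point threefold dilution series run in duplicate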
T4 construct: A549 (EGFR wildtype, endogenous); host or cells: A549

[7] = system: PC-9; assay: Cell proliferation assay (CellTiter-Glo), PC-9; conditions: Homo sapiens, value marked (PC9), read-out: 3T3 del IC50, (PC9)
Experimental: as §1

[8] = system: NCI-H3255; assay: Cell proliferation assay (CellTiter-Glo), NCI-H3255; conditions: Homo sapiens, value marked (H3255), read-out: 3T3 L858R IC50, (H3255)
Experimental: as §1

[9] = biological target: EGFR L858R+T790M (Homo sapiens, UniProt P00533, L858R/T790M); assay: pEGFR Y1068 ELISA assay, NIH3T3/EGFR_L858R+T790M cells; conditions: 3T3 cell line, 2 hrs compound treatment; read-out: pEGFRY1068 ELISA3T3T790M—L858R IC50;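 further: sandwich ELISA of EGFR phosphorylated at Tyr1068 in lysates of stably transfected NIH/3T3 cells, 11-point threefold dilution series run in duplicate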
[10] = system: NIH3T3/EGFR_E746-A750_deletion+T790M; assay: Cell proliferation assay (CellTiter-Glo), NIH3T3/EGFR_E746-A750_deletion+T790M; conditions: Mus musculus, NIH3T3, 120 h, 3T3 cell line, three to five days of compound treatment, read-out: 3T3 del_T790M IC50
Experimental: as §1

T1 sequence (P00533 25-1210 L858R): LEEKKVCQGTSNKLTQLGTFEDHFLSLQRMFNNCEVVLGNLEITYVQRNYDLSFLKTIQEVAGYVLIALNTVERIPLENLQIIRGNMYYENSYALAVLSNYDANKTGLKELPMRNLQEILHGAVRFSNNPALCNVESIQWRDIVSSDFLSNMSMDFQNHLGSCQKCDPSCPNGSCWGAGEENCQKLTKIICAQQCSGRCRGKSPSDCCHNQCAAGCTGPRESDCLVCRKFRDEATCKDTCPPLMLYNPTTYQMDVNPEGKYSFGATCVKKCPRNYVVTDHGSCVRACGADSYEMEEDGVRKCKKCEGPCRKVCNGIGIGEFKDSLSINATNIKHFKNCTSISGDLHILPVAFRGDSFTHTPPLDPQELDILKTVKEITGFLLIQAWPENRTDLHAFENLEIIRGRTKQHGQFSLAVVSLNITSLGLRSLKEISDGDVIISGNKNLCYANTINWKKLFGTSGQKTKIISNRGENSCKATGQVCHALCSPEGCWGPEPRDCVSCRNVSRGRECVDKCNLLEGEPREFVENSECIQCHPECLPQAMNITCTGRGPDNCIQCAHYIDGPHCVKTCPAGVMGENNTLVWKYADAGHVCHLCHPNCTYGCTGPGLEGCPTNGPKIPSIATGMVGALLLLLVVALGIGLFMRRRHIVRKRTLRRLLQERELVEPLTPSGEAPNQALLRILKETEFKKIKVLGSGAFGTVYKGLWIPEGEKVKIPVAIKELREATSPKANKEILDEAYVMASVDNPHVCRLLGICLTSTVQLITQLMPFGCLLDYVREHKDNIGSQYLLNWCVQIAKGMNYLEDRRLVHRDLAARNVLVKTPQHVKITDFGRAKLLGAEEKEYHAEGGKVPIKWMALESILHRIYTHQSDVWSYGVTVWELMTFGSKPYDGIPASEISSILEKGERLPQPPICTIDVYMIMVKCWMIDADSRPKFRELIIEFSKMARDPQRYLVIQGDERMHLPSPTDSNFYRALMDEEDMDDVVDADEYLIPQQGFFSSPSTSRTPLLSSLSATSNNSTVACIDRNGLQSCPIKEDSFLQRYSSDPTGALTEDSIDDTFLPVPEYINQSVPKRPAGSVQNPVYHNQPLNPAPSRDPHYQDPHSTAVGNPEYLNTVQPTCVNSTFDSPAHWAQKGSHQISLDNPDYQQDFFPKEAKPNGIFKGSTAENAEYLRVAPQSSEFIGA
T2 sequence (P00533 with tags, fused parts or gaps DEL746-750): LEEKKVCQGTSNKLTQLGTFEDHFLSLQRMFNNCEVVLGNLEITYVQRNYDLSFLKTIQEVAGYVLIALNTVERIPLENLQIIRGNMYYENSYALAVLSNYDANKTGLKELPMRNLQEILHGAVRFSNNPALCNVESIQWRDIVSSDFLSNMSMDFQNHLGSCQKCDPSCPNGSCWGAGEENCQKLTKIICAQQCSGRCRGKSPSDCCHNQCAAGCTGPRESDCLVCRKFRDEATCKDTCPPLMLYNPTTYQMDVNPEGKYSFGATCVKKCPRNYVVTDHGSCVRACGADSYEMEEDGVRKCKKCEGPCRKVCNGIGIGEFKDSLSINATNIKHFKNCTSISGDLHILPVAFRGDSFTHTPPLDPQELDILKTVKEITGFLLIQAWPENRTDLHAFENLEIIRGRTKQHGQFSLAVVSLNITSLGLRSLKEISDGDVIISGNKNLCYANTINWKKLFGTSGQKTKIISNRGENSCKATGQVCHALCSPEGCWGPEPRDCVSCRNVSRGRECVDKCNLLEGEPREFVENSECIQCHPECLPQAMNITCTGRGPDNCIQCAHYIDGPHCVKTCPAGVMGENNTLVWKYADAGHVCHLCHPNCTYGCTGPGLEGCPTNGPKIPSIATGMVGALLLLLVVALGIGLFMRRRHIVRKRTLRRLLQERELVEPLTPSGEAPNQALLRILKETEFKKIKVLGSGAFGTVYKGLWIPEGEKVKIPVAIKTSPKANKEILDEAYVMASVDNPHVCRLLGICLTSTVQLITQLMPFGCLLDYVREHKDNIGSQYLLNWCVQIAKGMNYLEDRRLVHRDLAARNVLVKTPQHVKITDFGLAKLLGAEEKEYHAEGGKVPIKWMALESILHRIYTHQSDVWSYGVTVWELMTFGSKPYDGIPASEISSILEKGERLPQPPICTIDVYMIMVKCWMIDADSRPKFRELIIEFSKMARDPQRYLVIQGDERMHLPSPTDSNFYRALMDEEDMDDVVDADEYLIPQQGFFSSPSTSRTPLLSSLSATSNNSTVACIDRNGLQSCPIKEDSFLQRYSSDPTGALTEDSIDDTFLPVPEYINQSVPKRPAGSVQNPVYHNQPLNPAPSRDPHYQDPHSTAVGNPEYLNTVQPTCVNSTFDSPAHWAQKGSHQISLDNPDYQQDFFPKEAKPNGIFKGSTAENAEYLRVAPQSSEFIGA
T3 sequence (P00533 25-1210 T790M/L858R): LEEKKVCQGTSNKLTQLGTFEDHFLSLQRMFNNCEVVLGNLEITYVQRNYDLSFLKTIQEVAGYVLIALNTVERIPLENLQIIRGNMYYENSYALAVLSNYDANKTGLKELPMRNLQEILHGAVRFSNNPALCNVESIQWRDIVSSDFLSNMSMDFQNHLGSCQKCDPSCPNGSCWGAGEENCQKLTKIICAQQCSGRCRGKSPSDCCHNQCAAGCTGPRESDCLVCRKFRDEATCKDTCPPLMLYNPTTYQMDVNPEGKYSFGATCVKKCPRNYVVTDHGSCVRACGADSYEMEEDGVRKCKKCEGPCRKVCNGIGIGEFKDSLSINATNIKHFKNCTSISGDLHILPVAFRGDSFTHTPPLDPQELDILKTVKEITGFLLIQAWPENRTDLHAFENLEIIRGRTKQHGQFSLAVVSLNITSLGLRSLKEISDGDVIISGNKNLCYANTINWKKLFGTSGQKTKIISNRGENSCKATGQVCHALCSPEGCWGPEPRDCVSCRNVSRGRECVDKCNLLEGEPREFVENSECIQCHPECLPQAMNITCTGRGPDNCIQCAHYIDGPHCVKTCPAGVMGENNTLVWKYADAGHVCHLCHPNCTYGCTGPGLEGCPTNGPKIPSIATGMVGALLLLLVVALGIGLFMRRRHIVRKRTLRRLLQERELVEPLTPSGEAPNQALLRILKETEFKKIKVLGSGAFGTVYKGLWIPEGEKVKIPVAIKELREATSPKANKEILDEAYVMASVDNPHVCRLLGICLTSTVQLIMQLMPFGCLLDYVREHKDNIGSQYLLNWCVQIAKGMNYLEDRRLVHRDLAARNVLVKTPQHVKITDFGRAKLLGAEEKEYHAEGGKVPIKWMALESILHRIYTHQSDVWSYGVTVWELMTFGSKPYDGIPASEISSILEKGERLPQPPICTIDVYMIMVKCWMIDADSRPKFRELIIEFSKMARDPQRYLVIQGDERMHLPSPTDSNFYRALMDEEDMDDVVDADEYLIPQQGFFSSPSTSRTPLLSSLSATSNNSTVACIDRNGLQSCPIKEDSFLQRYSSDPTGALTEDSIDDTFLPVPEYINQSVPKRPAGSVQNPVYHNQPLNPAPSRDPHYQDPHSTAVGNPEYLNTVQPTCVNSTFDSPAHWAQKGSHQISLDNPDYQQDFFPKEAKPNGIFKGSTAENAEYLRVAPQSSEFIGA
T4 sequence (P00533 25-1210): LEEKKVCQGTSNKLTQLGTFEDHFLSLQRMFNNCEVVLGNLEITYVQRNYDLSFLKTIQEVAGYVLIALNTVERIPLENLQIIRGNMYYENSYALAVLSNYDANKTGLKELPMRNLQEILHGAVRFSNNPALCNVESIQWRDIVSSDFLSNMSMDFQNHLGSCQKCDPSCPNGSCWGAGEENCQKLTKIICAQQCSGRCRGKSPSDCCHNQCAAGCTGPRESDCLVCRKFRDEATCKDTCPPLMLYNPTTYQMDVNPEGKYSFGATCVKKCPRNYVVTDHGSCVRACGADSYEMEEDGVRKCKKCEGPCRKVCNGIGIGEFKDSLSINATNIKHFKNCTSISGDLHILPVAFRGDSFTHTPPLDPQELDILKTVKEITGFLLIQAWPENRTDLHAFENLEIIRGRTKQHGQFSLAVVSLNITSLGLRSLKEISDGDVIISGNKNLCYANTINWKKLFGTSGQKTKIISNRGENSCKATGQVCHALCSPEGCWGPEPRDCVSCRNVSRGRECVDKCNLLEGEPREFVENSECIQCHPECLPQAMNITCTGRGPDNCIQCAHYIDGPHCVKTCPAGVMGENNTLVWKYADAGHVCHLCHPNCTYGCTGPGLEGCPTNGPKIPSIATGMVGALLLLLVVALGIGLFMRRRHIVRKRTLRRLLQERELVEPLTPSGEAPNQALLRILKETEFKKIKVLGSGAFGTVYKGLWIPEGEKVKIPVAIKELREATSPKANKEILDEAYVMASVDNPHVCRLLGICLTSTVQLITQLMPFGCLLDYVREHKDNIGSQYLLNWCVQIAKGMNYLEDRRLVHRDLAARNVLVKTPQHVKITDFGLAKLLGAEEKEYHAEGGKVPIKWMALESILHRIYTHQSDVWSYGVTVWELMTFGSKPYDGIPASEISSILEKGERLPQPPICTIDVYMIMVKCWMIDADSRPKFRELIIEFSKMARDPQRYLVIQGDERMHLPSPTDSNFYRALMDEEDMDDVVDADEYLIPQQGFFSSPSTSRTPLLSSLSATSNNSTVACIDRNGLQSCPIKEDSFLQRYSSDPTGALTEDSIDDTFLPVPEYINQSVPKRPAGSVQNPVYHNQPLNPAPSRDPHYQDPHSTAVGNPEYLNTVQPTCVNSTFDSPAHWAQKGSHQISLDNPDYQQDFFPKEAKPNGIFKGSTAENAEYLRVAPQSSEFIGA

Row | IC50 [2] [nM] | IC50 [3] [nM] | IC50 [4] [nM] | IC50 [5] [nM] | IC50 [6] [nM] | IC50 [7] [nM] | IC50 [8] [nM] | IC50 [9] [nM] | SMILES | IC50 [1] [nM] | IC50 [10] [nM]
1 | 31 | 87 | 10 to 100 | 5 | 450 | 100 to 1000 | 10 to 100 | – | C=CC(=O)N1C[C@@H](F)[C@H](Nc2nc(Nc3cnn(C)c3)nc3[nH]cc(Cl)c23)C1 (single isomer, unassigned) [Example 83] | 10 to 100 | –
2 | 48 | 91 | 100 to 1000 | 89 | – | 100 to 1000 | 100 to 1000 | – | C=CC(=O)N(C)[C@H]1C[C@H](Oc2nc(Nc3cnn(C)c3)nc3[nH]cc(-c4cccnc4)c23)C1 [Example 13, N-methyl-N-[trans-3-({2-[(1-methyl-1H-pyrazol-4-yl)amino]-5-(pyridin-3-yl)-7H-pyrrolo[2,3-d]pyrimidin-4-yl}oxy)cyclobutyl]prop-2-enamide] | 100 to 1000 | –
3 | 776 | > 6760 | – | 136 | > 10000 | – | – | – | C=CC(=O)N1CC(Nc2nc(Nc3cnn(C)c3)nc3[nH]cc(Cl)c23)C1 [Example 79] | – | –
4 | 273 | 891 | – | 25 | > 10000 | – | – | – | C=CC(=O)N(C)[C@H]1C[C@H](Oc2nc(Nc3cn(C)nc3C#N)nc3[nH]cc(Cl)c23)C1 [Example 80] | – | –
5 | 973 | > 10000 | – | 638 | > 10000 | – | – | – | C=CC(=O)N1C[C@H](Nc2nc(Nc3cnn(C)c3)nc3[nH]cc(Cl)c23)[C@H](n2ccnn2)C1 [Example 82] | – | –
6 | 61 | 154 | 100 to 1000 | – | – | > 1000 | 10 to 100 | 191 | C=CC(=O)N1C[C@H](Nc2nc(Nc3cnn(C)c3)nc3[nH]cc(Cl)c23)[C@@H](C(F)F)C1 [Example 85] | 10 to 100 | –
7 | 477 | 2340 | – | 266 | > 10000 | – | – | – | C=CC(=O)N(C)[C@H]1C[C@H](Oc2nc(Nc3cnn(C)c3)nc3[nH]cc(-c4ccn(C)n4)c23)C1 [Example 86] | – | –
8 | 43 | 48 | 100 to 1000 | 14 | 948 | > 1000 | 10 to 100 | – | C=CC(=O)N1C[C@H](Nc2nc(Nc3cnn(C)c3)nc3[nH]cc(Cl)c23)[C@@H](C(F)(F)F)C1 [Example 87] | 100 to 1000 | –
9 | 33 | 42 | – | 6 | 1650 | 100 to 1000 | 100 to 1000 | – | C=CC(=O)N(C)[C@H]1C[C@H](Oc2nc(Nc3cnn(C)c3)nc3[nH]cc(-c4ccccn4)c23)C1 [Example 89] | 10 to 100 | 10 to 100
